This is an account of results in ChEMBL document CHEMBL5154691, “Discovery of novel verinurad analogs as dual inhibitors of URAT1 and GLUT9 with improved Druggability for the treatment of hyperuricemia” (Eur J Med Chem, 2022).

The nature of data set [1]: Oral bioavailability in Sprague-Dawley rat at 5 mg/kg measured upto 36 hrs by LC-MS/MS analysis. The class given is ADME, organism-based. Conditions: in vivo.
In data set [2] the target is T1, Solute carrier family 2, facilitated glucose transporter member 9 (Homo sapiens, UniProt Q9NRM0).
T1 sequence (Q9NRM0 whole entry): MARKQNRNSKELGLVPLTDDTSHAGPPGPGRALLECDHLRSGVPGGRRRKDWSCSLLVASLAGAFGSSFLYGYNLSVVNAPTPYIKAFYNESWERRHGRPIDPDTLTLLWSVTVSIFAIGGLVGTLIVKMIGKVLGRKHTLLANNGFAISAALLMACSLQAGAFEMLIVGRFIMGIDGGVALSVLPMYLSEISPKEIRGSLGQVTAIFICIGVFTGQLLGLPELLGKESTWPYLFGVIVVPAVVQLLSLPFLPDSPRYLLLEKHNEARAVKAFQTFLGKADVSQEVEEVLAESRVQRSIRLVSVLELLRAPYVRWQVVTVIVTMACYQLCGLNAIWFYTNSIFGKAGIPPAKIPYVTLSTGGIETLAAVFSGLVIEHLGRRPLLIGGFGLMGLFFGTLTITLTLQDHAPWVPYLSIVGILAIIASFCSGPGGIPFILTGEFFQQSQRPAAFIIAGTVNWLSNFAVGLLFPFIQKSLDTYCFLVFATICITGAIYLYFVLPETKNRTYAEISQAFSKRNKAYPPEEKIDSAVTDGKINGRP
Description: Inhibition of GLUT9 (unknown origin) expressed in HEK293T cells assessed as inhibition of uric acid-induced current by whole cell patch clamp technique. The class given is cell-based. A general note: The patch-clamp technique gives a direct electrical read-out from membranes.

Data set [3] can be described thus: MRT (0 to infinity) in Sprague-Dawley rat at 5 mg/kg, po by LC-MS/MS analysis. Format: ADME, organism-based. Conditions: in vivo.
The nature of data set [4]: AUC (0 to infinity) in Sprague-Dawley rat at 5 mg/kg, po by LC-MS/MS analysis. On the set-up: time infinity, dose 5 mg/kg, route po. Format: ADME, organism-based. The note with it: in vivo.
The nature of data set [5]: Inhibition of URAT1 S35N mutant (unknown origin)-mediated 14C-uric acid uptake expressed in HEK293 cells using 14C-uric acid as substrate preincubated for 30 mins followed by substrate addition and measured after 15 mins by liquid scintillation counting analysis. Format: cell-based. Conditions: Homo sapiens.
Data set [6] in a line: Tmax in Sprague-Dawley rat at 5 mg/kg, iv measured upto 36 hrs by LC-MS/MS analysis. The class given is ADME, organism-based. Conditions: in vivo.
The nature of data set [7]: Inhibition of URAT1 F358Y mutant (unknown origin)-mediated 14C-uric acid uptake expressed in HEK293 cells using 14C-uric acid as substrate preincubated for 30 mins followed by substrate addition and measured after 15 mins by liquid scintillation counting analysis. Format: cell-based. Conditions: Homo sapiens.
Data set [8] in a line: Renal toxicity in xanthine and potassium oxonate-induced acute hyperuricemia Kunming mouse model assessed as blood urea nitrogen level at 10 mg/kg, po measured after 3 hrs. The class given is organism-based. Conditions: in vivo.
The subject of the next data set is Mus musculus. Description: Anti-hyperuricemic activity against xanthine and potassium oxonate-induced acute hyperuricemia Kunming mouse model assessed as serum uric acid concentration at 10 mg/kg, po measured after 3 hrs (reference value: 846.22 uM). The class given is functional.
Data set [9] has as its target T2, Broad substrate specificity ATP-binding cassette transporter ABCG2 (Homo sapiens, UniProt Q9UNQ0).
T2 sequence (Q9UNQ0 whole entry): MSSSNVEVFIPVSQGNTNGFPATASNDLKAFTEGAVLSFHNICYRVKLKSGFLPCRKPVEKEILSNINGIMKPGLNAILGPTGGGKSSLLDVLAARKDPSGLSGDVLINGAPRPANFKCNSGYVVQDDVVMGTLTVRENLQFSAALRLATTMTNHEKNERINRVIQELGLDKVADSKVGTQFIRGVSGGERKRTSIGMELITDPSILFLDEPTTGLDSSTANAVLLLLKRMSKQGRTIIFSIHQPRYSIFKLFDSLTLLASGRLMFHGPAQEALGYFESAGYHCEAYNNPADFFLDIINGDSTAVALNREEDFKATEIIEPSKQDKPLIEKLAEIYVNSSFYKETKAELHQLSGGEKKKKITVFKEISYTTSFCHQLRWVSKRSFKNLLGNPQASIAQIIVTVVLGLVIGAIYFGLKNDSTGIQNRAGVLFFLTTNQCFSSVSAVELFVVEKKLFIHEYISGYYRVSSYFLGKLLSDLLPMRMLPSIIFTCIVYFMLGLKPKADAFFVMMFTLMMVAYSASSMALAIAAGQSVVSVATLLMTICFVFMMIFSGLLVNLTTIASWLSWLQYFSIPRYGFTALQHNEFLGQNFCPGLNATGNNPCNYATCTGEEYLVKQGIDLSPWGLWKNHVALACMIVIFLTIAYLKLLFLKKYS
Briefly: Inhibition of ABCG2 (unknown origin) expressed in HEK293 cells membrane vesicles assessed as inhibition of ATP-induced 14C-uric acid uptake preincubated for 15 mins followed by incubation with ATP and substrate for 5 mins by liquid scintillation counting analysis. The class given is toxicity, cell membranes, Membrane vesicle.

Data set [10] in a line: Half life in Sprague-Dawley rat at 5 mg/kg, iv measured upto 36 hrs by LC-MS/MS analysis. The class given is ADME, organism-based. Conditions: in vivo.
Data set [11] can be described thus: Cmax in Sprague-Dawley rat at 5 mg/kg, iv measured upto 36 hrs by LC-MS/MS analysis. The class given is ADME, organism-based. On the set-up: time < 36 hrs, dose 5 mg/kg, route iv. Conditions: in vivo.

Take `N#Cc1ccc(Nc2cnccc2SCc2ccccc2C(=O)[O-])c2ccccc12.[Na+]`: the bioavailability (usually dose-corrected exposure relative to a reference, in per cent) in [1] came to 30.1%. In addition, the IC50 (usually the concentration that inhibits the measured activity by half) was determined as 9.37 µM in data set [2], 3.14 µM in [5], 0.78 µM in data set [7] and 26.7 µM in [9]. The mean residence time MRT inf – broadly, a mean duration of stay, worked out from the concentration-time curve – in data set [3] came out at 3.17 h. For the same compound, the AUC(0-inf) (in general, total exposure, with the tail of the curve extrapolated) in data set [4] was 5660 ng·h/mL. Also, in [6], the Tmax (commonly the time from dosing to the highest level) was 0.17 h. Further, the figures for the Activity entry (in data set [8]; with Mus musculus) were “Non-Toxic” and 645.8 µM, respectively. The half-life (in general, the time needed for the level to fall by half in the phase considered) in [10] is 4.19 h. Further, the highest level in data set [11] (Cmax) was 11100 ng/mL.
